Data taken from patent EP0324328B1, “Use of the N-n-butyl derivative of desoxynojirimycin in the manufacture of a medicament inhibiting HIV-Virus” (priority 1987, dated 1989).
Like-named read-outs stand apart in the source and are kept apart here.

Experiments:
HIV = assay: TCID titre of culture supernatants of T-45 cells infected with HIV, Fig. 4; assay type: cell-based; conditions: for reduction of TCID titre of culture supernatants: T-45 cells infected with HIV, after 10 days in culture, result in words; for reduction of the virus titer / yield of infectious HIV: at non-cytotoxic concentrations
Experimental: FIG. 4 is a graphical representation in which the viral titer (determined as TCID) is plotted against the concentration in mg/ml of various of the test compounds (drugs) of FIG. 3 in panels (a) and (b).
(§1) Cell free suspensions of the HIV were prepared from infected cultures. The concentration of infectious particles was estimated on end-point titration assay using serial ten-fold dilutions. The approximate number of infectious particles in each preparation was determined by the highest dilution which contains infectious HIV as determined by synctial formation, cytopathicity [Leonard et al., Proc. Natl. Acad. Sci. USA 85, 3570-3574 (1988); Barre-Sinoussi et al., Science 220, 868-870 (1983)] and HIV antigen [Karpas et al., Lancet 1, 695-697 (1985)] synthesis after 10 days of culture with 10^4 T-cells. This represents the concentration of infectious particles, herein defined as the tissue culture infectious dose (TCID).
(§2) The efficacy of the test compounds used in this example was assessed as follows: 0.2 ml of culture medium containing 10^4 T-45 cells were transferred into each well of a 96-well flat-bottomed tissue-culture plastic plate and the cells were allowed to settle at 37°C (see Figure 1). After 4 hours the media were aspirated and replaced with media which contained the test compound. Following overnight incubation the media was aspirated and 10^4 TCID of virus (HIV-1 or HIV-2) was added to each well. Incubation was continued at 37°C in 5% CO2 for 1 hour. Thereafter, growth media containing the various compounds were added and incubation at 37°C was continued. On the fourth day the cell suspensions from each well were split and seeded into two new wells and 0.2 ml of fresh media with compounds was added. This was repeated on the seventh day. Cells were examined by microscopy during days 1 to 10 for the presence of syncytia, growth rate and the appearance of the cytopathic effect (CPE) (giant cells, pycnotic nuclei, loss of refractility). CPE (100%) was defined as no round, refractile, uniform cells remaining; only giant, ballooned pyknotic cells were present. The viability of HIV infected cultures was determined by a rough count/estimate of cells which underwent CPE in relation to round refractile uniform (normal) cells in a given culture. Cells in wells which were incubated with compounds which appeared to inhibit or reduce HIV replication and in which there was marked cell proliferation were either transferred to larger wells (of a 24-well plate) or divided in order to maintain an approximate constant cell density to promote continuous cell division.
Quantitative data on the effect of the various compounds on the non-infected cells (cytotoxicity) was obtained by comparison of their growth rate to control cells not exposed to drugs (Table 1). Fig. 4 and Table 2 show the relation between the TCID titre of culture supernatants of T-45 cells infected with HIV after 10 days in culture and the concentration of drug. […] The inability of any of these drugs alone to totally reduce the TCID may be due to heterogeneity of virus production or spread. […] In addition, the MOLT-4 cell line was also used.

HIV-1 = assay: Virus titer (TCID) of HIV-1 infected T-cell cultures grown with test compound; assay type: cell-based; conditions: control 10^6; for HIV-1 (TCID): Table 2, 0.10 mg/ml, 10^4 T-45 or MOLT-4 cells (identical results), 10^4 TCID inoculum, after day 10; for VIRUS TITER HIV-1: Table 3, Example 2, 0.1 mg/ml, T-45 and MOLT-4 cells, 10^4 TCID on 10^4 cells
Experimental: as §1
(§3) The assay was run in 96 well plastic microtiter plates in which 0.2 ml of culture medium containing 10^4 T-cells are seeded into each well. RPMI-1640 supplemented with 10% fetal calf serum was used as the culture medium. In each assay, 6 wells are used. Three (1-3) are infected with 10^4 TCID/well of HIV-1 or HIV-2 and to the other three (4-6) culture medium alone is added. Medium is changed at the same intervals for each test compound. The detailed assay procedure is illustrated in Figures 1 and 2.
as §2
(§4) That is, HIV-1 was first passaged in T-45 cells; likewise, HIV-1 was first passaged in MOLT-4 cells. The same passaging was done with HIV-2. The test compounds were used at a concentration of 0.1 mg/ml. 10^4 TCID of HIV-1 and separately of HIV-2 were used to infect 10^4 cells. Upon completion of the test, the virus titers were as follows: TABLE 3

T-45 cells = assay type: cell-based, human; conditions: for Estimated Cell Growth Virus-uninfected Day 7: no-drug control 1.2x10^6; for cytotoxicity: non-infected cells, over the concentration range used (Fig. 3, Table 1), result in words
Experimental: FIG. 1 is a schematic outline of the test procedure used to assess the cytotoxic effect of test compounds on T-cells either infected or non-infected with HIV and in parallel the HIV inhibitory activity of the test compounds. TCID is the tissue culture infectious dose. Cells were cultured in RPMI-1640 medium with 10% fetal calf serum containing 100 units/ml penicillin G and 100 µg/ml streptomycin.
as §3
as §2, with “culture.” for “culture. Cells in wells which were incubated with compounds which appeared to inhibit or reduce HIV replication and in which there was marked cell proliferation were either transferred to larger wells (of a 24-well plate) or divided in order to maintain an approximate constant cell density to promote continuous cell division.”
Quantitative data on the effect of the various compounds on the non-infected cells (cytotoxicity) was obtained by comparison of their growth rate to control cells not exposed to drugs (Table 1). […] In addition, the MOLT-4 cell line was also used.

HIV-2 = assay: Virus titer (TCID) of HIV-2 infected T-cell cultures grown with test compound; assay type: cell-based; conditions: control 10^6; for HIV-2 (TCID): Table 2, 0.10 mg/ml, 10^4 T-45 or MOLT-4 cells (identical results), 10^4 TCID inoculum, after day 10; for VIRUS TITER HIV-2: Table 3, Example 2, 0.1 mg/ml, T-45 and MOLT-4 cells, 10^4 TCID on 10^4 cells
Experimental: as §1, §3, §2, §4

[1] = replicate tests (Tables 2 and 3), two virus strains, two cell lines

SMILES | reduction of TCID titre of culture supernatants (HIV) | reduction of the virus titer / yield of infectious HIV (HIV) | effectiveness as an inhibitor of HIV compared with N-ethyl deoxynojirimycin (HIV; [1]) | effectiveness as an inhibitor of HIV compared with N-methyl-deoxynojirimycin (HIV; [1]) | HIV-1 (TCID) (HIV-1) | VIRUS TITER HIV-1 (HIV-1) | Estimated Cell Growth Virus-uninfected Day 7 (T-45 cells; Dosage 0.01 mg/ml) | Estimated Cell Growth Virus-uninfected Day 7 (T-45 cells; Dosage 0.05 mg/ml) | Estimated Cell Growth Virus-uninfected Day 7 (T-45 cells; Dosage 0.10 mg/ml) | cytotoxicity (T-45 cells) | HIV-2 (TCID) (HIV-2) | VIRUS TITER HIV-2 (HIV-2) | Estimated Cell Growth Virus-uninfected Day 7 (T-45 cells; Dosage 0.25 mg/ml) | Estimated Cell Growth Virus-uninfected Day 7 (T-45 cells; Dosage 0.50 mg/ml)
CCCCN1C[C@H](O)[C@@H](O)[C@H](O)[C@H]1CO [BuDNJ, N-n-butyl-deoxynojirimycin] | negligible virus TCID titres | over five logs | three log orders more effective | two log orders more effective | <10 TCID | 10 | 1.2x10^6 | 1.2x10^6 | 1.4x10^6 | showed no cytotoxicity over the concentration range used | <10 TCID | 10 |  | 
CN1C[C@H](O)[C@@H](O)[C@H](O)[C@H]1CO [MeDNJ, N-methyl-deoxynojirimycin] | reduced the TCID only partially | two to four log-order of reduction |  |  | 10^2 TCID | 10^2 | 1.2x10^6 | 1.2x10^6 | 1.0x10^6 | cytotoxic | 10^2 TCID | 10^2 | 1.0x10^6 | 5.0x10^6
